Laboratory results taken from PMC7531004, “Discovery of gramicidin A analogues with altered activities by multidimensional screening of a one-bead-one-compound library” (Nature Communications, 2020).
Where a SMILES comes first, the peptide text is derived from it. [ ]: non-standard residue; d: D form. The star is where a group is joined. NHCH2CH2OH = OCCN*; For = O=C*

What was measured:
[1] = tested on: Streptococcus pyogenes SSI-9; experiment: Antibacterial activity assay of bead-derived peptides (three concentrations); format: cell-based; parameters: key: +++: inhibition by the 640-fold diluted peptide solution; ++: inhibition by the 160-fold diluted solution; +: inhibition by the 40-fold diluted solution; -: no inhibition; conditions: S. pyogenes, bead-derived peptide solution, three concentrations
In short: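 Three stock dilutions per peptide (none, 4-fold, 16-fold in DMSO) are screened in 96-well format. The medium is blood-supplemented cation-adjusted MHB, inoculated with 2 × 10^5 CFU S. pyogenes SSI-9. Growth is read as cell precipitation at 18 h, 37 °C.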

[2] = H+/Na+ transport assay of bead-derived peptides (one-point); format: biochemical; parameters: key: relative activity; mean of two control wells = 1.00; conditions: bead-derived peptide solution, EYPC/EYPG LUVs;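 also: relative to parent gramicidin A activity set to 1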
In short: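 Values are normalized fluorescence, with Triton X-100 defining 100% and untreated LUVs 0%, and the two control wells averaging 1.00. Vesicles carried 1.0 mM pyranine and included egg yolk phosphatidylglycerol. Peptides were incubated with them 30 min at room temperature.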

[3] = cell viability/%
In short: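 First, library peptide stocks are diluted 250-fold in RPMI1640 with 10% heat-inactivated FBS. Next, they are mixed with P388 cells to give 1 × 10^4 cells/mL and incubated 92 h at 37 °C, 5% CO2. Finally, viability (%) is scored by WST-1 absorbance at 415 nm.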

Structure (SMILES) | antibacterial activity [1] | H+/Na+ transport activity normalized against the value of 1 (1.00) [2] | viability [3] [%]
CC(C)C[C@@H](NC(=O)[C@H](C)NC(=O)CNC(=O)[C@@H](NC=O)C(C)C)C(=O)N[C@@H](C)C(=O)N[C@@H](C(=O)N[C@H](C(=O)N[C@@H](C(=O)N[C@@H](Cc1c[nH]c2ccccc12)C(=O)N[C@H](CC(C)C)C(=O)N[C@@H](Cc1c[nH]c2ccccc12)C(=O)N[C@H](CC(C)C)C(=O)N[C@@H](Cc1c[nH]c2ccccc12)C(=O)N[C@H](CC(C)C)C(=O)N[C@@H](Cc1c[nH]c2ccccc12)C(=O)NCCO)C(C)C)C(C)C)[C@H](C)O [compound 9098] (For-VGA[dL]A[dT]V[dV]W[dL]W[dL]W[dL]W-NHCH2CH2OH) | - | 1.13 | 51
CC(C)C[C@@H](NC(=O)[C@H](C)NC(=O)[C@H](NC(=O)[C@H](C)NC(=O)CNC(=O)[C@@H](NC=O)C(C)C)C(C)C)C(=O)N[C@H](C(=O)N[C@@H](C(=O)N[C@@H](Cc1c[nH]c2ccccc12)C(=O)N[C@H](CC(C)C)C(=O)N[C@@H](Cc1c[nH]c2ccccc12)C(=O)N[C@@H](C(=O)N[C@@H](Cc1c[nH]c2ccccc12)C(=O)N[C@H](CC(C)C)C(=O)N[C@@H](Cc1c[nH]c2ccccc12)C(=O)NCCO)[C@H](C)O)C(C)C)C(C)C [compound 9177] (For-VGA[dV]A[dL]V[dV]W[dL]W[dT]W[dL]W-NHCH2CH2OH) | - | 1.05 | 61.7
CC(C)C[C@@H](NC(=O)[C@H](C)NC(=O)[C@H](NC(=O)[C@H](C)NC(=O)CNC(=O)[C@@H](NC=O)C(C)C)C(C)C)C(=O)N[C@H](C(=O)N[C@H](CC(C)C)C(=O)N[C@@H](Cc1c[nH]c2ccccc12)C(=O)N[C@H](CC(C)C)C(=O)N[C@@H](Cc1c[nH]c2ccccc12)C(=O)N[C@@H](C(=O)N[C@@H](Cc1c[nH]c2ccccc12)C(=O)N[C@@H](C(=O)N[C@@H](Cc1c[nH]c2ccccc12)C(=O)NCCO)C(C)C)C(C)C)C(C)C [compound 9247] (For-VGA[dV]A[dL]V[dL]W[dL]W[dV]W[dV]W-NHCH2CH2OH) | + | 1.02 | 6
CC(C)C[C@@H](NC(=O)[C@H](C)NC(=O)CNC(=O)[C@@H](NC=O)C(C)C)C(=O)N[C@@H](C)C(=O)N[C@H](CC(C)C)C(=O)N[C@H](C(=O)N[C@@H](C(=O)N[C@@H](Cc1c[nH]c2ccccc12)C(=O)N[C@@H](C(=O)N[C@@H](Cc1c[nH]c2ccccc12)C(=O)N[C@H](CC(C)C)C(=O)N[C@@H](Cc1c[nH]c2ccccc12)C(=O)N[C@@H](C(=O)N[C@@H](Cc1c[nH]c2ccccc12)C(=O)NCCO)[C@H](C)O)C(C)C)C(C)C)C(C)C [compound 9823] (For-VGA[dL]A[dL]V[dV]W[dV]W[dL]W[dT]W-NHCH2CH2OH) | - | 1.08 | 100
CNC(=O)C[C@@H](NC(=O)[C@H](Cc1c[nH]c2ccccc12)NC(=O)[C@H](NC(=O)[C@H](Cc1c[nH]c2ccccc12)NC(=O)[C@H](NC(=O)[C@H](Cc1c[nH]c2ccccc12)NC(=O)[C@H](NC(=O)[C@@H](NC(=O)[C@@H](CC(C)C)NC(=O)[C@H](C)NC(=O)[C@@H](CC(C)C)NC(=O)[C@H](C)NC(=O)CNC(=O)[C@@H](NC=O)C(C)C)C(C)C)C(C)C)C(C)C)C(C)C)C(=O)N[C@@H](Cc1c[nH]c2ccccc12)C(=O)NCCO [compound 10002] (For-VGA[dL]A[dL]V[dV]W[dV]W[dV]W[dD](NHMe)W-NHCH2CH2OH) | - | 1.01 | 100
CC(C)C[C@@H](NC(=O)[C@H](Cc1c[nH]c2ccccc12)NC(=O)[C@@H](CC(C)C)NC(=O)[C@H](Cc1c[nH]c2ccccc12)NC(=O)[C@H](NC(=O)[C@H](Cc1c[nH]c2ccccc12)NC(=O)[C@H](NC(=O)[C@@H](NC(=O)[C@H](NC(=O)[C@H](C)NC(=O)[C@H](NC(=O)[C@H](C)NC(=O)CNC(=O)[C@@H](NC=O)C(C)C)C(C)C)C(C)C)C(C)C)C(C)C)[C@H](C)O)C(=O)N[C@@H](Cc1c[nH]c2ccccc12)C(=O)NCCO [compound 10042] (For-VGA[dV]A[dV]V[dV]W[dT]W[dL]W[dL]W-NHCH2CH2OH) | - | 1.06 | 100
CC(C)C[C@@H](NC(=O)[C@H](C)NC(=O)[C@H](NC(=O)[C@H](C)NC(=O)CNC(=O)[C@@H](NC=O)C(C)C)[C@H](C)O)C(=O)N[C@H](C(=O)N[C@@H](C(=O)N[C@@H](Cc1c[nH]c2ccccc12)C(=O)N[C@H](CC(C)C)C(=O)N[C@@H](Cc1c[nH]c2ccccc12)C(=O)N[C@@H](C(=O)N[C@@H](Cc1c[nH]c2ccccc12)C(=O)N[C@H](CC(C)C)C(=O)N[C@@H](Cc1c[nH]c2ccccc12)C(=O)NCCO)C(C)C)C(C)C)C(C)C [compound 10313] (For-VGA[dT]A[dL]V[dV]W[dL]W[dV]W[dL]W-NHCH2CH2OH) | - | 1.11 | 100
CC(C)C[C@@H](NC(=O)[C@H](C)NC(=O)[C@H](NC(=O)[C@H](C)NC(=O)CNC(=O)[C@@H](NC=O)C(C)C)[C@H](C)O)C(=O)N[C@H](C(=O)N[C@@H](C(=O)N[C@@H](Cc1c[nH]c2ccccc12)C(=O)N[C@@H](C(=O)N[C@@H](Cc1c[nH]c2ccccc12)C(=O)N[C@H](CC(C)C)C(=O)N[C@@H](Cc1c[nH]c2ccccc12)C(=O)N[C@@H](C(=O)N[C@@H](Cc1c[nH]c2ccccc12)C(=O)NCCO)C(C)C)[C@H](C)O)C(C)C)C(C)C [compound 10338] (For-VGA[dT]A[dL]V[dV]W[dT]W[dL]W[dV]W-NHCH2CH2OH) | - | 1.01 | 100
CC(C)C[C@@H](NC(=O)[C@H](Cc1c[nH]c2ccccc12)NC(=O)[C@@H](CC(C)C)NC(=O)[C@H](Cc1c[nH]c2ccccc12)NC(=O)[C@@H](CC(C)C)NC(=O)[C@H](Cc1c[nH]c2ccccc12)NC(=O)[C@H](NC(=O)[C@@H](NC(=O)[C@H](NC(=O)[C@H](C)NC(=O)[C@H](NC(=O)[C@H](C)NC(=O)CNC(=O)[C@@H](NC=O)C(C)C)C(C)C)C(C)C)C(C)C)[C@H](C)O)C(=O)N[C@@H](Cc1c[nH]c2ccccc12)C(=O)NCCO [compound 10353] (For-VGA[dV]A[dV]V[dT]W[dL]W[dL]W[dL]W-NHCH2CH2OH) | - | 1.02 | 100
CNC(=O)C[C@@H](NC(=O)[C@@H](NC(=O)[C@@H](CC(C)C)NC(=O)[C@H](C)NC(=O)[C@@H](CC(C)C)NC(=O)[C@H](C)NC(=O)CNC(=O)[C@@H](NC=O)C(C)C)C(C)C)C(=O)N[C@@H](Cc1c[nH]c2ccccc12)C(=O)N[C@H](CC(C)C)C(=O)N[C@@H](Cc1c[nH]c2ccccc12)C(=O)N[C@@H](C(=O)N[C@@H](Cc1c[nH]c2ccccc12)C(=O)N[C@@H](C(=O)N[C@@H](Cc1c[nH]c2ccccc12)C(=O)NCCO)C(C)C)C(C)C [compound 10379] (For-VGA[dL]A[dL]V[dD](NHMe)W[dL]W[dV]W[dV]W-NHCH2CH2OH) | - | 1.08 | 100
CC(C)C[C@@H](NC(=O)[C@H](C)NC(=O)CNC(=O)[C@@H](NC=O)C(C)C)C(=O)N[C@@H](C)C(=O)N[C@@H](C(=O)N[C@H](C(=O)N[C@@H](C(=O)N[C@@H](Cc1c[nH]c2ccccc12)C(=O)N[C@H](CC(C)C)C(=O)N[C@@H](Cc1c[nH]c2ccccc12)C(=O)N[C@@H](C(=O)N[C@@H](Cc1c[nH]c2ccccc12)C(=O)N[C@@H](C(=O)N[C@@H](Cc1c[nH]c2ccccc12)C(=O)NCCO)C(C)C)C(C)C)[C@H](C)O)C(C)C)C(C)C [compound 10400] (For-VGA[dL]A[dV]V[dT]W[dL]W[dV]W[dV]W-NHCH2CH2OH) | - | 1.04 | 100
CC(C)C[C@@H](NC(=O)[C@H](Cc1c[nH]c2ccccc12)NC(=O)[C@H](NC(=O)[C@H](Cc1c[nH]c2ccccc12)NC(=O)[C@H](NC(=O)[C@@H](NC(=O)[C@H](NC(=O)[C@H](C)NC(=O)[C@H](NC(=O)[C@H](C)NC(=O)CNC(=O)[C@@H](NC=O)C(C)C)C(C)C)C(C)C)C(C)C)[C@H](C)O)C(C)C)C(=O)N[C@@H](Cc1c[nH]c2ccccc12)C(=O)N[C@@H](C(=O)N[C@@H](Cc1c[nH]c2ccccc12)C(=O)NCCO)C(C)C [compound 10506] (For-VGA[dV]A[dV]V[dT]W[dV]W[dL]W[dV]W-NHCH2CH2OH) | - | 1.18 | 91.3
CC(C)C[C@@H](NC(=O)[C@H](C)NC(=O)CNC(=O)[C@@H](NC=O)C(C)C)C(=O)N[C@@H](C)C(=O)N[C@H](CC(C)C)C(=O)N[C@H](C(=O)N[C@@H](C(=O)N[C@@H](Cc1c[nH]c2ccccc12)C(=O)N[C@@H](C(=O)N[C@@H](Cc1c[nH]c2ccccc12)C(=O)N[C@@H](C(=O)N[C@@H](Cc1c[nH]c2ccccc12)C(=O)N[C@@H](C(=O)N[C@@H](Cc1c[nH]c2ccccc12)C(=O)NCCO)C(C)C)C(C)C)C(C)C)[C@H](C)O)C(C)C [compound 10609] (For-VGA[dL]A[dL]V[dT]W[dV]W[dV]W[dV]W-NHCH2CH2OH) | - | 1.15 | 79.4
